Assays:
Format in all cases: cell-based
human umbilical vein ECs = experiment: EC tissue factor activity, Factor VIIa-dependent Factor Xa formation
Description: (§1) Tissue factor activity of monolayers of ECs and MPs was determined (7) after incubation with EMAP II-derived peptides at 37° C. for 4-12 hrs by washing cultures with HEPES (10 MM; pH 7.4), NaCl (137 mM), KCl (4 mM), CaCl2 (3 mM), glucose (10 mM), bovine serum albumin (0.5 mg/ml), and addition of 0.5 ml of the same buffer along with purified human Factor VIIa (1 nM) and Factor X (200 nM) for 45 min at 37° C. Aliquots (0.05 ml) of the reaction mixture (one per well) were withdrawn at 15 min intervals, added to a buffer containing Tris (50 mM; pH 7.9), NaCl (175 mM), EDTA (5 mM) and bovine serum albumin (0.5 mg/ml; 0.05 ml), and the chromogenic substrate Spectrozyme Factor Xa (American Diagnositca, Inc., Greenwich Conn.; 0.01 ml; 2 mM). Cleavage of the substrate was monitored by the change in absorbance at 405 nm (BioKinetics Reader, Winooski, Vt.). Factor Xa concentration was determined by comparison with a standard curve generated with known amounts of purified human Factor Xa. Human, plasma-derived Factors VIIa and X were purified to homogeneity as described (31).
(§2) In Vitro Assays of EC, MP, and PMN Functions-Cell-associated tissue factor was assayed by its functional activity, using purified coagulation proteins, and tissue factor mRNA was detected by PCR. […] The concentration of Factor Xa was determined based on a standard curve generated with purified Factor Xa. […]

[1] = test system: human peripheral blood monocytes (MPs); experiment: Mononuclear phagocyte migration in microchemotaxis chambers
Description: (§3) Assessment of mononuclear phagocyte (mononuclears) and polymorphonuclear leukocyte (PMN) migration. Human peripheral blood monocytes were isolated from the blood of normal healthy volunteers (30). Blood was centrifuged on Hisopaque 1077 (Sigma, St. Louis, Mo.), the mononuclear fraction was obtained, washed twice in Earle's balanced salt solution, resuspended in RPMI 1640 containing human serum (10%; Gemini, Calabasas, Calif.), plated on tissue culture dishes and incubated at 37° C. for 1-2 hrs. Nonadherent cells were removed by washing the plate twice with balanced salt solution, and adherent cells were harvested by incubation with calcium-magnesium free buffer containing EDTA (2 mM) for 15 min at 37° C., followed by extensive washing. PMNs were prepared by centrifugation over Hisopaque 1119 as per the manufacturer's protocol (Sigma). Chemotaxis assays were performed in microchemotaxis chamber (NeuroProbe, Bethesda, Md.) containing Nucleopore polycarbonate membranes (5 μm; Nucleopore, Pleasonton, Calif.). Mononuclears or PMNs were suspended in RPMI 1640 containing fetal bovine serum (1%) and 10^4 cells were added per well to the upper chamber. The chemotactic stimulus was added to the indicated chamber, and assays were performed in quadruplicate over a 3 hr or 45 min incubation period at 37° C., with mononuclear cells or PMNs, respectively, after which non-migrating cells were removed, membranes were fixed in methanol, migrating cells were visualized with Wright's stain. Cells in nine high-power fields were counted, and the mean and standard error of the mean (SEM) were determined.
(§4) Cell migration was studied by adding MPs or PMNs (10^4 cells/well) resuspended in RPMI 1640 with fetal calf serum (1%; Gemini) to the upper wells of a microchemotaxis chamber (Neuro Probe, Bethesda, Md.) containing Nucleopore polycarbonate membranes (5 μm, Nucleopore, Pleasanton Calif.), as described (7,29-30). The chemotactic stimulus was placed in the upper or lower chamber, as indicated, and cells were allowed to migrate for 3 hrs (for MPs) or 45 min (for PMNs) at 37° C. Following removal of non-migrating cells, membranes were fixed in methanol and migrating cells were visualized with Wright's stain. Assays were performed in quadruplicate, and cells were counted in nine high-power fields in each case (mean±SEM is shown in the figures).
(§5) Migration of PMNs and MPs—Migration was studied using cells (10^4 and 10^3 cells/well form PMNs and MPs, respectively) resuspended in RPMI 1640 with fetal calf serum (1%) added to the upper wells of a microchemotaxis chamber (Neuro Probe, Bethesda, Md.) containing Nucleopore polycarbonate membranes (5 um, Nucleopor, Pleasanton, Calif.), as described (13, 22, 35). The stimulus was placed in the upper or lower chamber, as indicated, and the cells were allowed to migrate for 3 h (for MPs) or 45 min (for PMNs) at 37° C. Following removal of nonmigrating cells, membranes were fixed in methanol, and migrating cells were visualized with Wright's stain. Assays were performed in quadruplicate, and cells were counted in […] high-power fields in each case (mean±S.E. is shown in the figures).

human MPs = experiment: MP tissue factor activity, Factor VIIa-dependent Factor Xa formation
Description: as §1, §2

human PMNs = experiment: PMN migration in microchemotaxis chambers; set-up: key to PMN MIGRATION: (+) indicates the peptide induced PMN migration; (−) indicates the peptide did not induce PMN migration above levels seen in controls which contained no chemotactic stimulus
Description: as §3, §4, §5

ASRLDLRIGRIVTAKY [residues #6-20 from EMAP II, Cys to Arg substitution at position #15, and a C-terminal Tyr]
Induction of tissue factor activity in ECs (Factor VIIa-dependent Factor X activation) (human umbilical vein ECs): did not demonstrate induction of tissue factor activity | Induction of MP (mononuclear cell) migration (chemotaxis) ([1]; microchemotaxis chamber, 3 hrs at 37° C.): induce chemotaxis | MP migration at 100 pM peptide relative to FMLP at 1 μM ([1]; peptide 100 pM): similar | Induction of tissue factor activity in MPs (Factor VIIa-dependent Factor X activation) (human MPs): did not demonstrate induction of tissue factor activity | Dose above which PMN migration reached an apparent maximum (human PMNs; data not shown): > 1 nM | EC50 (human PMNs; four experiments, PMNs from three individuals, read-out: Peptide concentration for half-maximal PMN migration): 150 to 300 pM | Induction of PMN migration (chemotaxis) (human PMNs; microchemotaxis chamber, 45 min at 37° C.): led to induction of migration | PMN migration at 100 pM peptide relative to fMLP at 1 μM (human PMNs; peptide 100 pM): roughly comparable | Concentration range over which effect on PMN migration was dose-dependent (human PMNs; peptide added to the lower well): 10 to 10000 pM | PMN MIGRATION (human PMNs; peptides 100 pM in each case): +
